Test results from patent US20140041062A1, “GENETICALLY ENGINEERED MOUSE MODEL FOR AUTISM SPECTRUM DISORDER HAVING DELETION OF SHANK2 GENE AND USE THEREOF” (Industry-Academic Cooperation Foundation, Yonsei University, priority 2012, published 2014).
“Also recorded” adds a separate entry of the source.

Assays:
[1] = test system: Shank3 knockdown; conditions: caused by Shank3 knockdown; cited from earlier work
[2] = test system: NMDAR; assay: NMDA/AMPA ratio at hippocampal SC-CA1 synapses of Shank2−/− slices; type: cell-based, mouse; conditions: for NMDA/AMPA ratio: Shank2−/− SC-CA1 synapses / slices; for NMDAR function: Shank2−/− mice, figure legend
Excerpt: Thus, the present inventors measured the NMDA/AMPA ratio at Shank2^−/− SC-CA1 synapses. Indeed, the NMDA/AMPA ratio was reduced relative to wild-type synapses (FIG. 2e).
Reduced NMDAR function and associated signaling may contribute to autism spectrum disorder (ASD)-like behaviors in Shank2^−/− mice.
(§1) Consistent with previous findings, CDPPB also normalized the NMDA/AMPA ratio in Shank2^−/− slices (FIG. 4a). […] The smaller extents of signaling deficits in older mice (8 weeks) relative to younger mice (3-4 weeks) may reflect age-dependent reductions in NMDAR-mediated currents, and/or compensatory changes in NMDAR signaling.

[3] = test system: Shank2−/− mice; assay: Pup retrieval assay; type: in vivo, mouse; conditions: CDPPB i.p.
Protocol: Virgin female mice were isolated for four days before pup retrieval assays. Three normal pups (1-d old; C57BL/6N) were placed at three different corners of a home cage of a test female mouse (wild-type or Shank2^−/−), and the female mouse was allowed to retrieve the pups for 10 min. Efficiency of pup retrieval was measured by the time taken to retrieve the first, second, and third pups.
(§2) CDPPB (Ascent scientific) was dissolved in DMSO and polyethylene glycol 400 (DMSO:PEG 400=1:9) to a final concentration of 6 g/l. Wild-type and Shank2^−/− mice received intraperitoneal injection of CDPPB (10 or 3 mg/kg), or the same volume of DSMO-PEG400 mixture, 30 min before three-chamber or other behavioral assays and 40 min before brain sample preparation for immunoblot analyses. D-cycloserine (Ascent Scientific) was dissolved in saline to final concentration of 12 g/l. Wild-type and Shank2^−/− mice received intraperitoneal injection of D-cycloserine (20 mg/kg), or the same volume of saline, 30 min before three-chamber assays.

[4] = test system: NMDAR signaling; assay: Immunoblot analysis of NMDAR signaling in Shank2−/− whole brains and synaptosomes after CDPPB treatment; type: in vivo, mouse; conditions: CDPPB i.p. 40 min before brain sample preparation
Protocol: For whole brain homogenates, mouse brains (3-4 wks) were briefly homogenized in 3 volumes of ice-cold homogenization buffer (0.32 M sucrose, 10 mM HEPES pH7.4, 2 mM EDTA, protease inhibitors, phosphatase inhibitors). Protein concentrations were measured by the Bradford assay. The relative amount of […]α-tubulin was used as a loading control. Synaptosomal fractions were prepared (Blackstone, C. D. et al., J Neurochem 58, 1118-26 (1992)).
as §2
Shank2 deletion may also affect NMDAR-associated signaling that it critically regulates various synaptic events including LTP and LTD (Zhu, J. J. et al. Cell 110, 443-55 (2002); Shepherd, J. D. & Huganir, R. L. Annu Rev Cell Dev Biol 23, 613-43 (2007)). […]

[5] = test system: Shank2−/− mice; assay: Open field assay (hyperactivity); type: in vivo, mouse; conditions: CDPPB i.p.
Protocol: The size of the open field box was 40×40×40 cm, and the center zone line was 10 cm apart from the edge. Mice were placed in the center of chamber in the beginning of assay, and mouse movements were recorded with a video camera for 60 min, and analyzed by Ethovision 3.1 program (Noldus).
as §2

[6] = test system: Shank2−/− mice; assay: Three-chamber social interaction assay; type: in vivo, mouse
Protocol: The three-chamber social interaction assay consisted of three phases. In the first phase, a wild-type or Shank2^−/− mouse was placed in the three-chambered apparatus with two small containers in the left or right (not center) chamber, and was allowed to explore the environment freely for 10 min for habituation. After 10 min, the wild-type or Shank2^−/− mouse was gently guided to the center chamber, and the two entrances to the center chamber were blocked while an inaminate object (Object) and a stranger mouse (Stranger 1) were placed in the two containers. Then, the two entrances were opened to allow the mouse in the center to explore the new environment freely for 10 min. In the third phase, the test mouse was gently guided to the center chamber again, with the blockade of the entrances. The Object was replaced with Stranger 2, followed by exploration of the Stranger 1 or 2 by the test mouse for 10 min. Exploration was defined as each instance in which wild-type or Shank2^−/− mouse tries to sniff Object/Stranger, or orients its nose towards and come close to Object/Stranger. Time spent in each chamber was measured by Ethovision 3.1 program (Noldus). Individual movement tracks were analyzed by Ethovision and modified by ImageJ to generate heat maps. In addition to time spent in chamber or in exploration, the present inventors used the preference index, which represents a difference in percent exploration time over the targets (Wang, X. et al. Hum Mol Genet 20, 3093-108 (2011)).
as §2

[7] = test system: LTP and LTD; conditions: cited from earlier work
[8] = test system: Shank2−/− mice; assay: Repetitive behaviors (jumping) in home cage; type: in vivo, mouse; conditions: CDPPB i.p.
Protocol: Mice in their home cages with fresh bedding were used to measure times spent in repetitive behaviors including jumping, upright scrabbling, grooming, and digging during 10 min. Jumping was defined as the behavior of a mouse where it rears on it hind legs at the corner of the cage, or along the side walls, and jumps so that the two hind legs are simultaneously off the ground. Upright scrabbling was defined as the behavior of a mouse where it rears on it hind legs at the corner of the cage, or along the side walls, and tries to climb up against the wall with the two hind legs alternatively or coordinately touching the ground. Grooming behavior was defined as stroking or scratching of face, head, or body with the two forelimbs, or licking body parts. Digging behavior was defined as the behavior of a mouse where it coordinately uses two fore legs or hind legs to dig out or displace bedding materials.
as §2, with “Wild-type and Shank2^−/− mice received intraperitoneal injection of D-cycloserine (20 mg/kg), or the same volume of saline, 30 min before three-chamber assays.” left out

[9] = test system: Shank2−/− mice; assay: Anxiety-like behavior (elevated plus-maze, light-dark test); type: in vivo, mouse; conditions: CDPPB i.p.
Protocol: The elevated plus-maze consisted of two open arms, two closed arms, and a center area, elevated to a height of 50 cm above the floor. Mice were placed in the center area and allowed to explore the space for 8 min.
The apparatus for light-dark test consisted of light (˜600 lx) and dark (˜5 lx) chambers adhered to each other. An entrance enabled mice to freely move across the light and dark chambers. The size of light chamber was 20×30×20 cm, and that of dark chamber was 20×13×20 cm. Mice were introduced to the center of the light chamber with their heads pointing towards the opposite side of the dark chamber, and allowed to explore the apparatus freely for 10 min. The latency to enter the dark chamber, the time spent in dark and light chambers, and the number of transitions were measured. Transition was defined as the translocation of all four feet of a mouse from one to another chamber.
as §2, with “Wild-type and Shank2^−/− mice received intraperitoneal injection of D-cycloserine (20 mg/kg), or the same volume of saline, 30 min before three-chamber assays.” left out

[10] = test system: SC-CA1 synapses; assay: Synaptic plasticity (LTP, LTD) and basal transmission at SC-CA1 synapses of Shank2−/− mice; type: cell-based, mouse
Protocol: Next, the present inventors measured synaptic transmission at hippocampal Schaffer collaterals-CA1 pyramidal (SC-CA1) synapses. Basal excitatory transmission such as input-output and paired-pulse ratio was unchanged in Shank2^−/− mice (FIGS. 2a and 2b). In addition, spontaneous transmission and membrane excitability were normal in mutant animals. When synaptic plasticity was tested, long-term potentiation (LTP) induced by high frequency stimulation or theta-burst stimulation were severely impaired in Shank2^−/− mice (FIG. 2c). Long-term depression (LTD) induced by low-frequency stimulation was completely abolished also in Shank2^−/− mice (FIG. 2d). Because LTD induced by low-frequency stimulation activates both NMDA and metabotropic glutamate receptors (NMDARs and mGluRs), the present inventors isolated mGluR-LTD by bath-applying DHPG, an agonist of mGluR5, but found no difference between genotypes.
as §1

[11] = test system: neuroligin-1-deficient mice; conditions: neuroligin-1-deficient mice with reduced NMDA/AMPA ratio; cited from earlier work
[12] = test system: autism; conditions: cited from earlier work

Compound: N#Cc1cccc(C(=O)Nc2cc(-c3ccccc3)nn2-c2ccccc2)c1 [CDPPB]
- reduced ERK phosphorylation [1]: restores
- reduced excitatory transmission [1]: restores
- NMDA/AMPA ratio [2]: normalized
- NMDAR function [2]: normalizes
- impaired pup retrieval [3]: did not rescue
- NMDAR signaling in synaptosomes ([4]; Shank2−/− synaptosomes): fully normalized
- NMDAR signaling in whole brains ([4]; Shank2−/− whole brains): fully normalized
- hyperactivity [5]: did not rescue
- social interaction ([6]; CDPPB 10 mg/kg i.p. 30 min before assay): substantially improves; also recorded: substantial recoveries
- social novelty recognition ([6]; CDPPB i.p.): no effect
- social interaction, lower-dose ([6]; lower-dose CDPPB (3 mg/kg i.p.)): did not rescue
- LTP and LTD [7]: enhance
- spatial learning [7]: enhance
- repeated jumping [8]: did not rescue
- anxiety-like behaviors [9]: did not rescue
- basal synaptic transmission [10]: without affecting
- impaired LTD at SC-CA1 synapses [10]: restored
- impaired LTP at SC-CA1 synapses [10]: restored

Compound: N[C@@H]1CONC1=O [D-cycloserine]
- NMDA/AMPA ratio [2]: fully recovered
- NMDAR function [2]: normalizes
- social interaction ([6]; D-cycloserine 20 mg/kg i.p. 30 min before assay): improved
- repetitive grooming [11]: rescue

Compound: O=C(Nc1cc(-c2ccccc2)nn1-c1ccccc1)c1ccc([N+](=O)[O-])cc1 [VU-29]
- LTP and LTD [7]: enhance
- spatial learning [7]: enhance

Compound: GLYX-13
- therapeutic effect on autism [12]: showed a therapeutic effect
